From US20070122843A1, “Isoflavonoid analogs and their metal complexes as anti-cancer agents” (priority 2005, published 2007)
Like-named read-outs stand apart in the source and are kept apart here.

Experiments:
Akt1/PKBα, active enzyme = target: T1, Akt1/PKBα, active enzyme (Homo sapiens, UniProt P31749); experiment: Fluorescence polarization Akt kinase assay; format: biochemical
T1 construct: purchased Upstate Biotechnology 14-276
Description: The serine threonine Akt kinase reaction was carried out in 96 well black plates in a total volume of 100 μl using Ser/Thr kinase polarization based assay kit from Invitrogen Part # P3103. Briefly, the Akt kinase assay reaction was set up in a total volume of 40 μl in the presence of different concentrations of inhibitor. Stock solutions of test compounds were made in DMSO. From DMSO stocks, 4× solutions of test compounds were prepared in 1× assay dilution buffer; 10 μl of this drug solution was used in the assay. […] The plate was incubated at 30° C. for 30 minutes. Enzyme reaction was quenched with 10 μl of 50 mM EDTA for 5 minutes. Anti phosphor serine antibody was added 25 μl/well followed by 10 μl of fluorescent tracer. The total volume was made up to 100 μl by adding 15 μl of fluorescence polarization assay dilution buffer. Appropriate controls and blanks were prepared. The plate was incubated for 1 h at RT and was analyzed for polarization at 435 excitation and 535 emission wavelength on Tecan Ultra microplate reader. Polarization values were normalized to the control and were plotted against log concentration of test compounds using Graph Pad Prism software. Sigmoidal dose response curve analysis was used to calculate the IC50 of test compounds.

COLO357 = experiment: MTT cell viability / proliferation assay, COLO357; format: cell-based
Description: (§1) More specifically, the tumor cell lines MCF-7, MDA-MB 231 and COLO 357 were maintained in Dulbecco's modifed Eagle's medium (DMEM) with phenol red. […] The cell lines were cultured in a humidified incubator in an atmosphere of 5% CO2 and were maintained in continuous exponential growth by twice a week passage. Adherent cells at a logarithmic phase were detached by addition of 2-3 ml of trypsin (Gibco), 0.02% EDTA mixture and incubation at 37° C. […] Cells were incubated for 24 h at 37° C. to resume exponential growth. The test compounds were dissolved in DMSO (final concentration 0.1%) and added to the cells 24 h after seeding at varying concentrations. Control wells containing the culture medium, were included in each experiment. Cell proliferation was evaluated after 72 h by means of MTT assay. The biological effects of these compounds were studied against the hormone independent breast (BT20) and prostate (PC3) cancers as well as K-ras positive (Colo357) and K-ras negative (B×PC3) pancreatic cancer cell lines.

MCF-7 = experiment: MTT cell viability assay, MCF-7; format: cell-based
Description: (§2) The compounds were tested in multiple panels of breast (MCF-7, T47D, BT20 and MDA-MB231), prostate (PC3), and pancreatic (BxPC3, COLO357) cancer cell lines, using the dye 3-[4,5 dimethylthiazol-2-yl]-2,5 diphenyltetrazolium bromide (MTT assay) according to a method described in Banerjee, et al., Cancer Research. 2002 62, 4945.
(§3) More specifically, the tumor cell lines MCF-7, MDA-MB 231 and COLO 357 were maintained in Dulbecco's modifed Eagle's medium (DMEM) with phenol red. Cell lines T47D, BT20, PC3 and BxPC3 were routinely cultured in RPMI medium, each medium being supplemented with Penicillin (50U/ml), Streptomycin (50 μg/ml) and 10% fetal calf serum (FCS) (Gibco, Myclone). The cell lines were cultured in a humidified incubator in an atmosphere of 5% CO2 and were maintained in continuous exponential growth by twice a week passage.
(§4) Adherent cells at a logarithmic phase were detached by addition of 2-3 ml of trypsin (Gibco), 0.02% EDTA mixture and incubation at 37° C. Cells were plated (100 μL per well) in 48 well flat bottom microtiter plates at densities of 2000 to 5000 per cm^2 (MCF-7, MDA-MB321, T47D, BT20, PC3, B×PC3, COLO357) cells per well. Cells were incubated for 24 h at 37° C. to resume exponential growth. The test compounds were dissolved in DMSO (final concentration 0.1%) and added to the cells 24 h after seeding at varying concentrations. Control wells containing the culture medium, were included in each experiment. Cell proliferation was evaluated after 72 h by means of MTT assay.

PC3 = experiment: MTT cell viability / proliferation assay, PC3; format: cell-based, human
Description: as §1

BT20 = experiment: MTT cell viability / proliferation assay, BT20; format: cell-based
Description: as §1

BxPC3 = experiment: MTT cell viability / proliferation assay, BxPC3; format: cell-based
Description: as §1

[1] = system: breast cancer cell line (T47D); experiment: Propidium iodide / Hoechst 33342 staining, apoptosis and cell viability; format: cell-based
Description: To provide further evidence of apoptosis, we carried out phase contrast microscopy using a mixture of propidium iodide (PI) and Hoechst dye 33342 to determine the integrity of cell membranes of cancer cells. The quantification of the apoptosis was carried out by cell count after staining with PI followed by visualization of treated cells by fluorescence analysis. […] After 5 minutes at 37° C. the cells were placed under a fluorescence microscope (Nikon Optiphot) with a filter block giving excitation at 380 nm and 480 nm.

[2] = system: breast, prostate and pancreatic cancer cell lines; experiment: MTT assay, statements over several cancer cell lines; format: cell-based
Description: as §2, §3, §4
The biological effects of these compounds were studied against the hormone independent breast (BT20) and prostate (PC3) cancers as well as K-ras positive (Colo357) and K-ras negative (B×PC3) pancreatic cancer cell lines.

[3] = system: vascular endothelial growth factor (VEGF); experiment: VEGF ELISA in BxPC3 cells; format: cell-based, human; conditions: 10 μM, 20 μM, 72 h
Description: B×PC3 cells (0.1×10^6/well) were plated into 6-well plates and incubated in supplemented RPMI containing 10% FBS.

T47D = experiment: MTT cell viability assay, T47D; format: cell-based; conditions: 72 h
Description: as §2, §3
Adherent cells at a logarithmic phase were detached by addition of 2-3 ml of trypsin (Gibco), 0.02% EDTA mixture and incubation at 37° C. Cells were plated (100 μL per well) in 48 well flat bottom microtiter plates at densities of 2000 to 5000 per cm^2 (MCF-7, MDA-MB321, T47D, BT20, PC3, B×PC3, COLO357) cells per well. Cells were incubated for 24 h at 37° C. to resume exponential growth. […] Cell proliferation was evaluated after 72 h by means of MTT assay.

MDA-MB 231 = experiment: MTT cell viability assay, MDA-MB 231; format: cell-based
Description: as §2, §3, §4

PC3 cells = experiment: Western blot of Akt, p-Akt and PARP in PC3 cells; format: cell-based, human; conditions: 10 and 20 μM, 72 h
Description: Control cells were incubated in the medium with Na2CO3 using same time point. After incubation the cells were lysed with This-HCl (62.5 mm) and 2% SDS. Protein concentration was then measured using […] protein assay (Pierce Chemical Co., Rockford, Ill.). Cell extracts were subjected to 10% SDS-PAGE and electrophoretically transferred to nitrocellulose membrane. Membranes were then incubated with monoclonal anti-Akt (epitome: amino acids 345-480 of Akt1, 1:500; Ontogeny, 26. San Diego, Calif.), anti-phosphor-Akt Ser473 (1:1000; Cell Signaling, Beverly, Mass.), primary monoclonal anti-PARP antibody (1:5000; Biomol, Plymouth Meeting, Pa.) and anti-β-actin (1:5000; Sigma) antibodies, washed with TTBS, and incubated with secondary antibody conjugated with peroxidase. The signal was then detected using the chemiluminescent detection system (Pierce, Rockford, Ill.).

COLO 357 cells = experiment: Orthotopic pancreatic tumor model using COLO 357 cells; format: in vivo
Description: The redox sensitive transcription factor NF-kB, is downstream of the Akt kinase protein and plays major role in the cell proliferation and metastasis and resistance in major cancers such as breast, prostate and pancreatic. […] Nuclear proteins were extracted from the tumor tissue as described previously (see, for example, Banerjee, et al, Cancer Research, Vo. 65, p. 9064 (2005)) and kept at −70° C. until use. Protein concentration was determined using the bicinchonic acid assay kit with BSA as the standard (Pierce Chemical Co., Rockford, Ill.). The incubation mixture included 25 mM DTT and 2.5% Tween 20 in a binding buffer. The DNA-protein complex formed was separated from free oligonucleotide on 8.0% native polyacralyamide gel using buffer containing 50 mM Tris, 200 mm glycine, pH 8.5, and 1 mM EDTA, and then visualized by Odyssey Infrared Imaging System using Odyssey Software Release 1.1.
Since the NF-κB pathway is regulated by Akt protein, the effects of the FPA-124 on NF-κB activity was studied in an in vivo experiment, specifically the well-established orthotopic pancreatic tumor model using COLO 357 cells.

[4] = system: Colo357, BxPC3, BT20, and PC3 cells; experiment: Cell Death Detection ELISA apoptosis assay; format: cell-based; conditions: FPA-124, FPA-125, FPA-127 compared
Description: To determine whether the metal conjugates induce apoptosis in tumor cells, quantitative evaluation of apoptosis was carried out with a Cell Death Detection ELISA kit (Roche, Palo Alto, Calif.). Apoptosis was detected according to the protocol supplied by the manufacturer.
Since all copper compounds are redox active metal conjugates, we believe that redox triggered oxidative stress may be one of the underlying mechanisms for the observed apoptotic cell death in the present case. […] This observation is also in accordance with the favorable distortion factor calculated for the present copper compounds using EPR spectra, which factor helps stabilize cuprous and cupric species without dissociation of the conjugate.

[5] = 72 h, Table 1, read-out: MTT cell viability assay IC50 COLO357
[6] = 72 h, Table 1, read-out: MTT cell viability assay IC50 PC3
[7] = 72 h, Table 1, read-out: MTT cell viability assay IC50 BT20
[8] = 72 h, Table 1, read-out: MTT cell viability assay IC50 BxPC3
[9] = FPA-102 25 mg/kg wt, i.v. on alternate days

T1 sequence (P31749 whole entry): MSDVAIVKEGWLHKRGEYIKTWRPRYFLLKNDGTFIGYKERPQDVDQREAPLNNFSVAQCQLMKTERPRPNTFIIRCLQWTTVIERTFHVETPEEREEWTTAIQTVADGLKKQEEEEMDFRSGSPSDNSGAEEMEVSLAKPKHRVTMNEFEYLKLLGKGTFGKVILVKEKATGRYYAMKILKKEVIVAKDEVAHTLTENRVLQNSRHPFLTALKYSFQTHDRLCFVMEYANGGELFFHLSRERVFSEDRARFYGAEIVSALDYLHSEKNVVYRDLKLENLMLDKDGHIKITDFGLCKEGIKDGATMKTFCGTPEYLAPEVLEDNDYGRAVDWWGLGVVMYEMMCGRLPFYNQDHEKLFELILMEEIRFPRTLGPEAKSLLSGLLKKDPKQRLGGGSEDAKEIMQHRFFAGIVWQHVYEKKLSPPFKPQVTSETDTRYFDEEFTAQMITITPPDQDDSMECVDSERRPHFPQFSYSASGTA

CC(=O)C1CCC2C3CCC4=CC(=NNC(N)=S)CCC4(C)C3CCC12C.[Cl][Ni][Cl] (stereo not drawn) [FPA-103]
concentration inhibiting Akt kinase activity (Akt1/PKBα, active enzyme): higher concentration | IC50 (COLO357; [5]): 20 µM | IC50 (MCF-7; 72 h): 7.5 µM | IC50 (PC3; [6]): > 100 µM | IC50 (BT20; [7]): > 100 µM

CC(=O)C1CCC2C3CCC4=CC(=NNC(N)=S)CCC4(C)C3CCC12C.[Cl][Cu][Cl] (stereo not drawn) [FPA-102]
IC50 (BxPC3; [8]): 12.7 µM | apoptotic cells ([1]; IC50 concentration, 24-48 h treatment): ~95% | non-viable cells ([1]; IC50 concentration, 3 h incubation): 40% | cell death by uptake of propidium iodide ([1]; T47D, 10 μM, 72 hours): cells undergoing cell death by uptake of propidium iodide | IC50 (COLO357; [5]): 9 µM | IC50 ([2]; MCF-7, MDA-MB 231, T47D, BT20, PC3, BxPC3, COLO357, read-out: IC50 values, range over the cell lines of Table 1): 5 to 13 µM | IC50 (MCF-7; 72 h): 6 µM | IC50 (PC3; [6]): 9 µM | VEGF levels [3]: decrease in the VEGF levels | IC50 (T47D): 5 µM | IC50 (MDA-MB 231; 72 h): 11 µM | IC50 (BT20; [7]): 13 µM | PARP degradation, Western blot (PC3 cells): induces poly (ADP-ribose) polymerase degradation | phosphor-Akt, Western blot (PC3 cells): down regulates | body weight of treated mice vs control (toxicity) (COLO 357 cells; [9]): no significant change in the body weight | tumor burden (COLO 357 cells; [9]): decrease tumor burden | NF-κB in tumor tissue (EMSA) (COLO 357 cells; treatment for 10 days, once every alternate day): down-regulation of NF-κB | tumor histology (COLO 357 cells; tumor from treated mice): marked necrosis and apoptosis | viable part of tumor mass, histology (COLO 357 cells; tumor from treated mice): 20%

O=c1c(-c2ccc(O)cc2)coc2cc(O)cc(O)c12 [Genistein, 4,5,7,-trihydroxyisoflavone, reference compound]
IC50 (BxPC3; Homo sapiens, BXPC-3, Table 2, read-out: MTT Cell Proliferation Assay IC50 BxPC3): 30 µM | IC50 (Akt1/PKBα, active enzyme; Table 2, read-out: Fluorescence Polarization Akt kinase Assay IC50): > 70 µM | IC50 (COLO357; Homo sapiens, COLO357, Table 2, read-out: MTT Cell Proliferation Assay IC50 COLO357): 50 µM | IC50 ([2]; Pancreatic cancer cell, Colo357, BxPC3, BT20, PC3, read-out: IC50 values in these multiple cancer cell lines): > 40 µM | IC50 (PC3; Homo sapiens, PC-3, Table 2, read-out: MTT Cell Proliferation Assay IC50 PC3): 50 µM | IC50 (BT20; Homo sapiens, BT-20, Table 2, read-out: MTT Cell Proliferation Assay IC50 BT20): 46 to 70 µM

CC(=O)C1CCC2C3CCC4=CC(=NNC(N)=S)CCC4(C)C3CCC12C (stereo not drawn) [FPA-101, 17-acetyl-10,13-dimethyl-1,2,6,7,8,9,11,12,13,14,15,16,17-tetradecahydrocyclopenta[a]phenantnren-3-thiosemicarbazone]
IC50 (BxPC3; Homo sapiens, BXPC-3, 72 h, Table 1, read-out: MTT cell viability assay IC50 BxPC3): 5 µM | concentration inhibiting Akt kinase activity (Akt1/PKBα, active enzyme): higher concentration | IC50 (COLO357; Homo sapiens, COLO357, 72 h, Table 1, read-out: MTT cell viability assay IC50 COLO357): 13 µM | antiproliferative action against the cell lines tested ([2]; cell lines of Table 1): moderate antiproliferative action | IC50 (MCF-7; Homo sapiens, MCF7, 72 h): 20 µM | IC50 (PC3; Homo sapiens, PC-3, 72 h, Table 1, read-out: MTT cell viability assay IC50 PC3): 16 µM | IC50 (MDA-MB 231; Homo sapiens, MDA-MB-231, 72 h): 25 µM | IC50 (BT20; Homo sapiens, BT-20, 72 h, Table 1, read-out: MTT cell viability assay IC50 BT20): 53 µM

NC1=[S+][Cu-2]([Cl])([Cl])[N+](=Cc2coc3ccccc3c2=O)N1 [FPA-124]
IC50 (BxPC3; Table 2, read-out: MTT Cell Proliferation Assay IC50 BxPC3): 55 µM | apoptosis by ELISA, rank among metal conjugates [4]: most active compound | IC50 (Akt1/PKBα, active enzyme; read-out: Akt kinase activity IC50): 0.1 µM | IC50 (COLO357; Table 2, read-out: MTT Cell Proliferation Assay IC50 COLO357): 34 µM | IC50 (PC3; read-out: concentration for 50% cell kill, PC3 cells): 10 µM | IC50 (BT20; read-out: concentration for 50% cell kill, BT20 cells): 7 µM | NF-κB activity in tumor tissue (EMSA) (COLO 357 cells; FPA-124 study): significantly decreased | body weight of the treated animals (toxicity) (COLO 357 cells; FPA-124 study): no change in the body weight | tumor load (pancreas weight) (COLO 357 cells; FPA-124 study): decrease in the tumor load

CC(=O)C1CCC2C3CCC4=CC(=NNC(N)=S)CCC4(C)C3CCC12C.[Cl][Pt][Cl] (stereo not drawn) [FPA-104]
IC50 (BxPC3; [8]): 5 µM | concentration inhibiting Akt kinase activity (Akt1/PKBα, active enzyme): higher concentration | IC50 (COLO357; [5]): 7.3 µM | IC50 (MCF-7; 72 h): 22 µM | IC50 (PC3; [6]): 18 µM | IC50 (MDA-MB 231; 72 h): 34 µM | IC50 (BT20; [7]): 18 µM
